Several values for one entry are separate records, joined by “and”; a condition that tells them apart may be missing. Identical values can stand only once. Like-named read-outs stand apart in the source and are kept apart here.
Test: Plasma pharmacokinetics after intraperitoneal injection in mouse (UPLC-MS/MS)
Format: in vivo
Details: for concentration at 5 min / concentration at 0.167 h / concentration at 0.25 h / concentration at 0.5 h / concentration at 1 h / concentration at 2 h / concentration at 4 h / concentration at 8 h / half-life / MRT / AUC(0-inf) / Cmax / Tmax / AUC(0-t) / MRT inf / concentration at 6 h: male, ICR; for concentration at 5 min / concentration at 0.167 h / concentration at 0.25 h / concentration at 0.5 h / concentration at 1 h / concentration at 2 h / concentration at 4 h / concentration at 8 h / half-life / MRT / concentration at 6 h: plasma; for concentration at 5 min / concentration at 0.167 h / concentration at 0.25 h / concentration at 0.5 h / concentration at 1 h / concentration at 2 h / concentration at 4 h / concentration at 8 h / concentration at 6 h: ip; for MRT: read-out: mean residence time (MRT)(0-t); for AUC(0-inf) / Cmax / Tmax / AUC(0-t) / MRT inf / AUClast/D / AUC—% Extrap—obs / T1/2: mouse plasma, prototype drug; for AUC(0-t): read-out: AUClast; for MRT inf: read-out: MRTInf—obs
Protocol: Positive control drug 4-butyl-α-agarofuran preparation (BAF) and Compound 2 preparation were administered intraperitoneally at a dose of 10 mg/kg/10 ml (calculated according to the crude drug), and a suspension was prepared by ultrasonic grinding with double distilled water. Male ICR mice, with a weight of 21-24 g, were purchased from SPF (Beijing) Biotechnology Co., Ltd.
12 mice were randomly divided into 4 groups, there were 3 parallel cross blood sampling points in each group (5 points in groups 1 and 3, and 6 points in groups 2 and 4), it was administered according to the weight, and blood was collected from the orbital venous plexus at 5 min, 10 min, […], 30 min, 1 h, 2 h, 4 h, 6 h, 8 h, 12 h, and 24 h after administration. The bloods at each time point were collected into Eppendorf (EP) tubes anticoagulated with heparin, and placed on ice and centrifuged at 8000 r/min×5 min, to separate plasma for later use.
20 μl of mouse blank plasma was taken, 55 μl of acetonitrile containing an internal standard solution (200 ng/mL, BAF crude drug and Compound 2 crude drug are mutual internal standards, namely BAF was used as the internal standard of Compound 2, and Compound 2 was used as the internal standard of BAF, similarly hereinafter) is added, 5 μl of a methanol working solution of the compound BAF or Compound 2 with different concentrations was respectively added and mixed uniformly, so that its final plasma concentrations were 0.2, 0.5, 2, 5, 10, 25, 50, 100, 200, 500, 750, and 1000 ng/ml respectively, centrifugation was conducted twice at a high speed of 13000 r/min×5 min, and 5 μl of a supernatant was taken for UPLC-MS/MS analysis.
10 μL of plasma was taken, 30 μL of acetonitrile containing internal standard solution (100 ng/mL) was added to precipitate proteins, after the material was centrifuged twice at a high speed of 13000 r/min×5 min, 5 μl of a supernatant was taken for UPLC-MS/MS analysis.
Chromatographic column: Symmetry C8 (2.1 mm×50 mm, 3.5 μm), column temperature: 25° C., mobile phase: acetonitrile (0.1% formic acid): water (0.1% formic acid)=70:30 gradient elution, flow rate: 0.2 mL/min, Parallel Reaction Monitoring (PRM) detection, BAF: m/z 263.2→245.2; and Compound 2: m/z 317.2→299.2.

[1] = mouse, 10 mg/kg, IP 10 mg/kg, 5 min, read-out: Plasma concentration, Mean
[2] = mouse, 10 mg/kg, IP 10 mg/kg, 0.167 h, read-out: Plasma concentration, Mean
[3] = mouse, 10 mg/kg, IP 10 mg/kg, 0.167 h, read-out: Plasma concentration, individual mice 1-3
[4] = mouse, 10 mg/kg, IP 10 mg/kg, 0.25 h, read-out: Plasma concentration, Mean
[5] = mouse, 10 mg/kg, IP 10 mg/kg, 0.5 h, read-out: Plasma concentration, Mean
[6] = mouse, 10 mg/kg, IP 10 mg/kg, 0.5 h, read-out: Plasma concentration, individual mice 1-3
[7] = mouse, 10 mg/kg, IP 10 mg/kg, 1 h, read-out: Plasma concentration, Mean
[8] = mouse, 10 mg/kg, IP 10 mg/kg, 2 h, read-out: Plasma concentration, Mean
[9] = mouse, 10 mg/kg, IP 10 mg/kg, 2 h, read-out: Plasma concentration, individual mice 1-3
[10] = mouse, 10 mg/kg, IP 10 mg/kg, 4 h, read-out: Plasma concentration, Mean
[11] = mouse, 10 mg/kg, IP 10 mg/kg, 8 h, read-out: Plasma concentration, individual mice 1-3

CCCCC1=CCC[C@@]2(C)CC[C@@H]3C[C@]12OC3(C)C [BAF, 4-butyl-α-agarofuran, reference compound]
Plasma concentration, individual mice 1-3 (IP 10 mg/kg, 5 min, 10 mg/kg): 413 ng/mL and 295 ng/mL and 194 ng/mL
Plasma concentration, individual mice 1-3 (IP 10 mg/kg, 0.167 h, 10 mg/kg): 133 ng/mL and 204 ng/mL
Plasma concentration, individual mice 1-3 (IP 10 mg/kg, 0.25 h, 10 mg/kg): 364 ng/mL and 132 ng/mL and 91.8 ng/mL
Plasma concentration, individual mice 1-3 (IP 10 mg/kg, 0.5 h, 10 mg/kg): 45.2 ng/mL and 38.9 ng/mL
Plasma concentration, individual mice 1-3 (IP 10 mg/kg, 1 h, 10 mg/kg): 54.6 ng/mL and 22.2 ng/mL and 24.4 ng/mL
Plasma concentration, individual mice 1-3 (IP 10 mg/kg, 2 h, 10 mg/kg): 6.91 ng/mL and 6.54 ng/mL
Plasma concentration, individual mice 1-3 (IP 10 mg/kg, 4 h, 10 mg/kg): 11.3 ng/mL and 2.09 ng/mL and 2.90 ng/mL
Plasma concentration, individual mice 1-3 (IP 10 mg/kg, 6 h): BLOQ
Plasma concentration, individual mice 1-3 (IP 10 mg/kg, 8 h, 10 mg/kg): BLOQ
Plasma concentration, individual mice 1-3 (IP 10 mg/kg, 12 h): BLOQ
Plasma concentration, individual mice 1-3 (IP 10 mg/kg, 24 h): BLOQ
concentration at 5 min [1]: 301 ng/mL
concentration at 0.167 h [2]: 179 ng/mL
concentration at 0.167 h [3]: 201 ng/mL
concentration at 0.25 h [4]: 196 ng/mL
concentration at 0.5 h [5]: 42 ng/mL
concentration at 0.5 h [6]: 41.9 ng/mL
concentration at 1 h [7]: 33.7 ng/mL
concentration at 2 h [8]: 6.52 ng/mL
concentration at 2 h [9]: 6.1 ng/mL
concentration at 4 h [10]: 5.4 ng/mL
concentration at 8 h [11]: 4.03 ng/mL
half-life (mouse, IP 10 mg/kg): 1.29 h
MRT (mouse, IP 10 mg/kg): 1.05 h
AUC(0-inf) (IP 10 mg/kg): 139 ng·h/mL
Cmax (IP 10 mg/kg): 301 ng/mL
Tmax (IP 10 mg/kg): 5 min
AUC(0-t) (IP 10 mg/kg): 129 ng·h/mL
MRT inf (IP 10 mg/kg): 1.05 h
AUClast/D (IP 10 mg/kg): 12.9 kg·ng·h/mL/mg
AUC—% Extrap—obs (IP 10 mg/kg): 7.24%
T1/2 (IP 10 mg/kg): 1.29 h

CC1(C)O[C@]23C[C@H]1CC[C@]2(C)CCC=C3CCCC(F)(F)F [Compound 2, (1R,6S,9R)6,10,10-trimethyl-2-(4,4,4-trifluorobutyl)-11-oxatricyclo [7.2.1.0^1,6]dodec-2-ene]
Plasma concentration, individual mice 1-3 (IP 10 mg/kg, 5 min, 10 mg/kg): 407 ng/mL and 585 ng/mL
Plasma concentration, individual mice 1-3 (IP 10 mg/kg, 0.167 h, 10 mg/kg): 198 ng/mL and 214 ng/mL
Plasma concentration, individual mice 1-3 (IP 10 mg/kg, 0.25 h, 10 mg/kg): 201 ng/mL and 196 ng/mL
Plasma concentration, individual mice 1-3 (IP 10 mg/kg, 0.5 h, 10 mg/kg): 59.8 ng/mL and 67.5 ng/mL
Plasma concentration, individual mice 1-3 (IP 10 mg/kg, 1 h, 10 mg/kg): 41.2 ng/mL and 32.1 ng/mL
Plasma concentration, individual mice 1-3 (IP 10 mg/kg, 2 h, 10 mg/kg): 17.9 ng/mL and 22.3 ng/mL
Plasma concentration, individual mice 1-3 (IP 10 mg/kg, 4 h, 10 mg/kg): 8.03 ng/mL and 6.56 ng/mL
Plasma concentration, individual mice 1-3 (IP 10 mg/kg, 6 h, 10 mg/kg): 3.20 ng/mL and 3.79 ng/mL
Plasma concentration, individual mice 1-3 (IP 10 mg/kg, 8 h, 10 mg/kg): BLOQ
Plasma concentration, individual mice 1-3 (IP 10 mg/kg, 12 h): BLOQ
Plasma concentration, individual mice 1-3 (IP 10 mg/kg, 24 h): BLOQ
concentration at 5 min [1]: 450 ng/mL
concentration at 5 min (mouse, 10 mg/kg, IP 10 mg/kg, 5 min, read-out: Plasma concentration, individual mice 1-3): 359 ng/mL
concentration at 0.167 h [2]: 251 ng/mL
concentration at 0.167 h [3]: 341 ng/mL
concentration at 0.25 h [4]: 195 ng/mL
concentration at 0.25 h (mouse, 10 mg/kg, IP 10 mg/kg, 0.25 h, read-out: Plasma concentration, individual mice 1-3): 188 ng/mL
concentration at 0.5 h [5]: 69.5 ng/mL
concentration at 0.5 h [6]: 81.1 ng/mL
concentration at 1 h [7]: 32.5 ng/mL
concentration at 1 h (mouse, 10 mg/kg, IP 10 mg/kg, 1 h, read-out: Plasma concentration, individual mice 1-3): 24.3 ng/mL
concentration at 2 h [8]: 20 ng/mL
concentration at 2 h [9]: 19.7 ng/mL
concentration at 4 h [10]: 7.45 ng/mL
concentration at 4 h (mouse, 10 mg/kg, IP 10 mg/kg, 4 h, read-out: Plasma concentration, individual mice 1-3): 7.77 ng/mL
concentration at 6 h (mouse, 10 mg/kg, IP 10 mg/kg, 6 h, read-out: Plasma concentration, Mean): 3.56 ng/mL
concentration at 6 h (mouse, 10 mg/kg, IP 10 mg/kg, 6 h, read-out: Plasma concentration, individual mice 1-3): 3.69 ng/mL
concentration at 8 h [11]: 3.17 ng/mL
half-life (mouse, IP 10 mg/kg): 1.61 h
MRT (mouse, IP 10 mg/kg): 1.32 h
AUC(0-inf) (IP 10 mg/kg): 198 ng·h/mL
Cmax (IP 10 mg/kg): 450 ng/mL
Tmax (IP 10 mg/kg): 5 min
AUC(0-t) (IP 10 mg/kg): 190 ng·h/mL
MRT inf (IP 10 mg/kg): 1.32 h
AUClast/D (IP 10 mg/kg): 19 kg·ng·h/mL/mg
AUC—% Extrap—obs (IP 10 mg/kg): 4.16%
T1/2 (IP 10 mg/kg): 1.61 h
Pharmacokinetic properties compared with BAF (mouse, IP): better pharmacokinetic properties
AUC(0-t) as percentage of BAF (mouse, IP 10 mg/kg): 142%
Cmax as percentage of BAF (mouse, IP 10 mg/kg): 150%
